Experimental data published in ChEMBL document CHEMBL5154900, “Design and Synthesis of Dual EZH2/BRD4 Inhibitors to Target Solid Tumors” (J Med Chem, 2022).
The source made the active and inactive calls. No cut-off for these calls is given here.

Key:
HCT-116 [1] = experiment: Induction of apoptosis in human HCT116 cells assessed as early apoptotic cells at 20 uM measured after 72 hrs by flow cytometry (reference value: 2.8 %); format: functional
[2] = target: T1, Histone-lysine N-methyltransferase EZH2 (Homo sapiens, UniProt Q15910); experiment: Binding affinity to EZH2 in human A549 cell lysate assessed as increase in thermal stability at 10 uM incubated for 1 hr followed by temperature treatment at 45 to 54.5 degC for 3 mins by thermal shift assay; format: subcellular; details: time 63.0 min
Target sequence in this assay (Q15910 whole entry, looked up): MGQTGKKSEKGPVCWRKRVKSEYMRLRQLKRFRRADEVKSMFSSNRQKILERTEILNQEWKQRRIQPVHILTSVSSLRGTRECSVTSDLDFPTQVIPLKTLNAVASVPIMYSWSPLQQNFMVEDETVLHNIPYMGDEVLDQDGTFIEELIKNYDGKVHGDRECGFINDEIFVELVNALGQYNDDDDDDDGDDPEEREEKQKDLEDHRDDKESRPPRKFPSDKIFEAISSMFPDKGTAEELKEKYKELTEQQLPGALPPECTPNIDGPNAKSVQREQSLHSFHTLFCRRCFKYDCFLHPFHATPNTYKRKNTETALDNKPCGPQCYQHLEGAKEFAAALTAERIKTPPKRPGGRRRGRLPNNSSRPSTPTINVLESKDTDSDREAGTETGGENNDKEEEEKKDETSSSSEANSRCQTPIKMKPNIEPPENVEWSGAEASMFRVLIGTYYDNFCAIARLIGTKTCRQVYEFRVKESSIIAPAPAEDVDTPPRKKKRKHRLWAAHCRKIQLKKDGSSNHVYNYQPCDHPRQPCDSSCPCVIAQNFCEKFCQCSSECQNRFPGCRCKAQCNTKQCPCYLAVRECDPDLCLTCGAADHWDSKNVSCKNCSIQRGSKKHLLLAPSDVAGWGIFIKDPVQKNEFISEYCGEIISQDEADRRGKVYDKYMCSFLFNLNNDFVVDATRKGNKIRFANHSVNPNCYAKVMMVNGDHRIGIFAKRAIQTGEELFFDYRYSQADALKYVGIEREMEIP

[3] = target: T2, Bromodomain-containing protein 4 (Homo sapiens, UniProt O60885); experiment: Binding affinity to BRD4 in human A549 cell lysate assessed as increase in thermal stability at 10 uM incubated for 1 hr followed by temperature treatment at 45 to 54.5 degC for 3 mins by thermal shift assay; format: subcellular; details: time 63.0 min
HCT-116 [4] = experiment: Antiproliferative activity against human HCT-116 cells assessed as inhibition of cell proliferation at 1 uM incubated for 4 days by cell counter method; format: functional, cell-based; details: time 4.0 day
A549 [5] = experiment: Antitumor activity against human A549 cells assessed as inhibition of colony formation measured after 12 to 20 days by crystal violet staining based analysis; format: functional, cell-based; details: dose <= 0.4 µM, time 12-20 day, DDE = dose-dependent effect
[6] = target: T1, Histone-lysine N-methyltransferase EZH2; experiment: Inhibition of EZH2 in human ASPC1 cells assessed as decrease in H3K27me3 level at 0.05 uM incubated for 72 hrs by Western blot analysis; format: cell-based
Target sequence in this assay (Q15910 whole entry, looked up): as above

[7] = target: T1, Histone-lysine N-methyltransferase EZH2; experiment: Inhibition of EZH2 in human HCT-116 cells assessed as decrease in H3K27me3 level at 0.05 uM incubated for 72 hrs by Western blot analysis; format: cell-based
Target sequence in this assay (Q15910 whole entry, looked up): as above

ASPC1 [8] = experiment: Induction of cell cycle arrest in 24 hr starved human ASPC1 cells assessed as accumulation at G0/G1 phase at 1 uM measured after 48 hrs by PI staining based flow cytometric analysis; format: functional
ASPC1 [9] = experiment: Induction of apoptosis in human ASPC-1 cells assessed as downregulation of Bcl-2 protein at 1 uM inubated for 72 hrs by Western blot analysis; format: functional, cell-based
ASPC1 [10] = experiment: Induction of apoptosis in human ASPC-1 cells assessed as upregulation of p21 protein at 1 uM inubated for 72 hrs by Western blot analysis; format: functional, cell-based
HCT-116 [11] = experiment: Induction of apoptosis in human HCT116 cells assessed as downregulation of Bcl-2 protein at 1 uM inubated for 72 hrs by Western blot analysis; format: functional, cell-based
HCT-116 [12] = experiment: Induction of apoptosis in human HCT116 cells assessed as downregulation of Bcl-xl protein at 1 uM inubated for 72 hrs by Western blot analysis; format: functional, cell-based
HCT-116 [13] = experiment: Induction of apoptosis in human HCT116 cells assessed as upregulation of p21 protein at 1 uM inubated for 72 hrs by Western blot analysis; format: functional, cell-based
A549 [14] = experiment: Induction of apoptosis in human A549 cells assessed as downregulation of Bcl-2 protein at 1 uM inubated for 72 hrs by Western blot analysis; format: functional, cell-based
A549 [15] = experiment: Induction of apoptosis in human A549 cells assessed as downregulation of Bcl-xl protein at 1 uM inubated for 72 hrs by Western blot analysis; format: functional, cell-based
A549 [16] = experiment: Induction of apoptosis in human A549 cells assessed as upregulation of p21 protein at 1 uM inubated for 72 hrs by Western blot analysis; format: functional, cell-based
[17] = Half life in 12 hr fasted BALB/c mouse at 80 mg/kg, ip measured for 0.083 to 24 hrs by UPLC-MS/MS analysis; format: ADME, organism-based; details: in vivo, time 0.083-24 hrs
[18] = Tmax in 12 hr fasted BALB/c mouse at 80 mg/kg, ip measured for 0.083 to 24 hrs by UPLC-MS/MS analysis; format: ADME, organism-based; details: in vivo, time 0.083-24 hrs
[19] = Cmax in 12 hr fasted BALB/c mouse at 80 mg/kg, ip measured for 0.083 to 24 hrs by UPLC-MS/MS analysis; format: ADME, organism-based; set-up: dose 80 mg/kg, time upper 24 hrs, time lower 0.083 hrs, route ip; details: in vivo
[20] = AUC in 12 hr fasted BALB/c mouse at 80 mg/kg, ip measured for 0.083 to 24 hrs by UPLC-MS/MS analysis; format: ADME, organism-based; set-up: time lower 0.083 hrs, dose 80 mg/kg, time upper 24 hrs, route ip; details: in vivo
[21] = Half life in 12 hr fasted BALB/c mouse at 80 mg/kg, po measured for 0.083 to 24 hrs by UPLC-MS/MS analysis; format: ADME, organism-based; details: in vivo, time 0.083-24 hrs
[22] = Tmax in 12 hr fasted BALB/c mouse at 80 mg/kg, po measured for 0.083 to 24 hrs by UPLC-MS/MS analysis; format: ADME, organism-based; details: in vivo, time 0.083-24 hrs
[23] = target: T1, Histone-lysine N-methyltransferase EZH2
Target sequence in this assay (Q15910 whole entry): as the sequence (Q15910 whole entry, looked up) above

[24] = target: T2, Bromodomain-containing protein 4; experiment: Displacement of fluorescein-labeled JQ1 from His6/TEV cleavage site fused human BRD4 (residues N44 to E168) expressed in Escherichia coli BL21 (DE3) incubated for 60 min by Fluorescence polarization assay
ASPC1 [25] = experiment: Effect on ADRB2 mRNA levels in human ASPC1 cells at 5 uM incubated for 48 hrs by RT-qPCR analysis; format: functional, cell-based
A549 [26] = experiment: Effect on ADRB2 mRNA levels in human A549 cells at 5 uM incubated for 48 hrs by RT-qPCR analysis; format: functional, cell-based
HCT-116 [27] = experiment: Effect on TXINP mRNA levels in human HCT-116 cells at 5 uM incubated for 48 hrs by RT-qPCR analysis; format: functional, cell-based
A549 [28] = experiment: Effect on TXINP mRNA levels in human A549 cells at 5 uM incubated for 48 hrs by RT-qPCR analysis; format: functional, cell-based
ASPC1 [29] = experiment: Effect on TNFRSF21 mRNA levels in human ASPC1 cells at 5 uM incubated for 48 hrs by RT-qPCR analysis; format: functional, cell-based
A549 [30] = experiment: Effect on TNFRSF21 mRNA levels in human A549 cells at 5 uM incubated for 48 hrs by RT-qPCR analysis; format: functional, cell-based
A549 [31] = experiment: Effect on TRHDE mRNA levels in human A549 cells at 5 uM incubated for 48 hrs by RT-qPCR analysis; format: functional, cell-based
HCT-116 [32] = experiment: Induction of cell cycle arrest in 24 hr starved human HCT-116 cells assessed as accumulation at G0/G1 phase at 1 uM measured after 48 hrs by PI staining based flow cytometric analysis; format: functional
[33] = Permeability of compound across apical to basolateral side in human Caco-2 cells measured for 1 to 3 hrs by LC-MS analysis; format: ADME, cell-based; details: time 1-3 hrs
ASPC1 [34] = experiment: Antitumor activity against human ASPC1 cells xenografted in BALB/c mouse assessed as tumor growth inhibition at 80 mg/kg, ip administered 3 times weekly for 28 days and measured every 3 days relative to control; format: functional; set-up: scale not given: the % may be the effect or the level left; details: time 28 day
A549 [35] = experiment: Antitumor activity against human A549 cells xenografted in BALB/c mouse assessed as tumor growth inhibition at 80 mg/kg, ip administered 3 times weekly for 40 days and measured every 3 days relative to control; format: functional; set-up: scale not given: the % may be the effect or the level left; details: time 40 day
A549 [36] = experiment: Antitumor activity against human A549 cells xenografted in BALB/c mouse assessed as reduction in tumor volume at 60 mg/kg, ip administered 6 times weekly for 38 days and measured every 3 days relative to control; format: functional; set-up: scale not given: the % may be the effect or the level left; details: time 38 day
[37] = Toxicity in BALB/c mouse xenografted with human A549 cells assessed as body weight loss at 60 mg/kg, ip administered 6 times weekly for 38 days; format: organism-based; details: in vivo, 912 h, time 38 day

In the case of `CCN(c1cc(-c2ccc(OCCCCCNC(=O)C[C@@H]3N=C(c4ccc(Cl)cc4)c4c(sc(C)c4C)-n4c(C)nnc43)cc2)cc(C(=O)NCc2c(C)cc(C)[nH]c2=O)c1C)C1CCOCC1`, the Activity (HCT-116 [1]) is reported as 72.9%, the Activity [2] is reported as “Active” and the Activity [3] is reported as “Active”. For the same compound, the Activity (HCT-116 [4]) was “Active”, the Activity (A549 [5]) was “Dde” and the inhibition [6] was “Active”. For the same compound, the inhibition [7] was “Active”, the Activity (ASPC1 [8]) was “Active” and the Activity (ASPC1 [9]) was “Active”. For the same compound, the Activity (ASPC1 [10]) was “Active”, the Activity (HCT-116 [11]) was “Active” and the Activity (HCT-116 [12]) was “Active”. The Activity (HCT-116 [13]) was “Active”, the Activity (A549 [14]) was “Active” and the Activity (A549 [15]) was “Active”. For the same compound, the Activity (A549 [16]) was “Active”, the half-life [17] was 3.81 h and the Tmax [18] was 1 h. It also gave a Cmax [19] of 27100 ng/mL, an AUC [20] of 273 µg·h/mL and a half-life [21] of 4.16 h. The Tmax [22] was 1 h, the IC50 [23] was 490 nM and the IC50 [24] was 34 nM. For the same compound, the Activity (ASPC1 [25]) was “Active”, the Activity (A549 [26]) was “Active” and the Activity (HCT-116 [27]) was “Active”. The Activity (A549 [28]) was “Active”, the Activity (ASPC1 [29]) was “Active” and the Activity (A549 [30]) was “Active”. For the same compound, the Activity (A549 [31]) was “Active”, the Activity (HCT-116 [32]) was “Active” and the permeability [33] was “Impermeable”. For the same compound, the Activity (ASPC1 [34]) was 38.6%, the Activity (A549 [35]) was 62.3% and the Activity (A549 [36]) was 63.4%. The Activity [37] was “Non-Toxic”.
